Assay [1] deals with MCF-7 breast cancer cells. Description: Inhibition of E2-stimulated proliferation of MCF-7 breast cancer cells. Format: cell-based, human. To be noted: 100 pM E2, hormone-depleted medium, 6-8 days. The method, then:
Proliferation of MCF-7 breast cancer cells was measured using a fluorescent DNA binding dye 6-8 days after treatment in triplicate with representative compounds in the presence of 100 pM E2 in hormone-depleted medium. IC50's were calculated from individual experiments as in Example 25.

The test system of assay [2] is AP activity in ECC-1 cells. In words: Alkaline phosphatase (AP) assay in ECC-1 cells co-treated with 500 pM E2. Format: cell-based, human. The settings on record: 3 days. As to the method:
(§1) Method for performing the alkaline phosphatase (AP) assay. ECC-1 cells (American Type Culture Collection, Manassas, Va.) were maintained in RPMI medium plus 10% fetal bovine serum at 37° C. At the beginning of the assay trypsinized cells were resuspended in RPMI medium plus 5% charcoal dextran stripped serum (CDSS, (Hyclone, Logan, Utah)) and plated at a density of 25-50 k cells per well into a 96-well plate for at least 6 hours. Representative compounds were diluted in serum-free medium and added 1:1 to plated cells in replicate wells (2.5% CDSS final). Plates were incubated for 3 days at 37° C. and subsequently frozen at −80° C. to lyse cells after removing the medium. Thawed plates were incubated with a chromogenic substrate of AP, p-nitrophenyl phosphate (Invitrogen, Grand Island, N.Y.), for 40 minutes at 40° C. Absorbances were read at 405 nm using a plate spectrophotometer. AP activity was normalized to 500 pM 17β-estradiol (E2), reported as the maximum activity observed for each individual experiment, regardless of dose.
AP activity was assayed as in Example 28 but cells were co-treated with 500 pM E2.

In another assay the target is T1, ERα (Homo sapiens, UniProt P03372).
T1 construct: ERα expression was detected in MCF-7 cell lysates treated with 100 nM antiestrogens in serum-free medium for 24 hours; endogenous in cells; host or cells: MCF-7
T1 sequence (P03372 1-595): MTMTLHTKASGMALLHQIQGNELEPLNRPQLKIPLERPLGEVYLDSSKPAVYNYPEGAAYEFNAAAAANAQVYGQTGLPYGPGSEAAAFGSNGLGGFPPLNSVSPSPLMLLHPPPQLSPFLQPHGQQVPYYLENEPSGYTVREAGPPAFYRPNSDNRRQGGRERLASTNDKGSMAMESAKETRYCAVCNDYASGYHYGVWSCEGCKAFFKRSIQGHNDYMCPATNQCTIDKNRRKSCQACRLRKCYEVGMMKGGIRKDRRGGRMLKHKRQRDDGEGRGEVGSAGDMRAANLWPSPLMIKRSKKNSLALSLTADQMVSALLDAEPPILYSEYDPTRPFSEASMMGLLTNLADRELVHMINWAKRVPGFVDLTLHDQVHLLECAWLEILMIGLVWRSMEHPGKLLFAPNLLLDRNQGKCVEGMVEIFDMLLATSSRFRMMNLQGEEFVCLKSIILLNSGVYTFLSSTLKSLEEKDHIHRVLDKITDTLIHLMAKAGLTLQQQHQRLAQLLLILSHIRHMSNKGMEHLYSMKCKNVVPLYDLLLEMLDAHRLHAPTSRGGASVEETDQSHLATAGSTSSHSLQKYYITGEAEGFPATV
Description: ERα expression in MCF-7 cell lysates (immunoblot). Format: cell-based. To be noted: MCF-7 cells, 100 nM compound, serum-free medium, 24 hours, immunoblot band intensity. The method, then:
ERα expression was detected in MCF-7 cell lysates treated with 100 nM antiestrogens in serum-free medium for 24 hours and immunoblotted with an antibody specific to ERα.
Band intensity was normalized relative to vehicle for each individual experiment and listed in Table 3 (Relative change ERα levels (% vehicle)).
Background: Immunoblotting shows a protein as a band on a membrane.

Assay [3] deals with estrogen-responsive reporter gene (ERE-tk109-Luc) in MCF-7 cells. Description: Inhibition of E2-induced transcription, ERE-tk109-Luc reporter gene in MCF-7 cells. It is filed as cell-based, human. To be noted: 100 pM 17β-estradiol (E2), 18-22 hours, read-out: IC50, inhibition of E2-induced transcription in breast cells. The method, then:
Representative compounds were tested for their inhibitory activity of estrogen according to the assay methods described in Hodges-Gallagher, L., Valentine, C. V., El Bader, S. and Kushner, P. J. (2007) “Histone Deacetylase Inhibitors Enhance the Efficacy of Hormonal Therapy Agents on Breast Cancer Cells and Blocks Anti-estrogen-Driven Uterine Cell Proliferation” Breast Cancer Res Treat, November; 105(3):297-309. Specifically, an estrogen-responsive reporter gene (ERE-tk109-Luc) was transiently transfected into MCF-7 cells and treated with anti-estrogens in triplicate in the presence of 100 pM 17β-estradiol (E2) for 18-22 hours. Luciferase activity was normalized to activity of E2 alone and IC50's were calculated using the least squares fit method.
For orientation: Reporter assays use an easily measured gene product as a stand-in for the process of interest.

Assay [4] has as its system AP activity in ECC-1 cells. In words: Alkaline phosphatase (AP) assay in ECC-1 uterine cells, induction of AP activity. Format: cell-based, human. To be noted: 3 days, normalized to 500 pM E2, maximum activity observed regardless of dose. The method, then: as §1
The mark [5] stands for this setting: Homo sapiens, MCF7, MCF-7 cells.

pIC50: −log10 of the molar value. Like-named read-outs stand apart in the source and are kept apart here. Marks after values point to notes of the source that are not given here.

What is called pIC50 is −log10 of the IC50, conventionally taken in molar units. Regarding `CCCN1CC(Oc2ccc(C3Oc4cc(O)ccc4C(C)=C3c3ccc(O)cc3)cc2)C1` (single isomer, unassigned) [Compound 105, 3-(4-hydroxyphenyl)-4-methyl-2-(4-((1-propylazetidin-3-yl)oxy)phenyl)-2H-chromen-7-ol], the pIC50 is 8.00 in assay [1] (MCF-7 cells) and 8.40 in assay [3] (MCF-7 cells). For the same compound, the “AP activity (% E2), cells co-treated with 500 pM E2” value (from here on “AP activity (% E2)”) in assay [2] worked out at 4 % E2. Also, the “Relative change ERα levels (% vehicle)” value at ERα is listed as 39 % veh. The “Induction of AP activity in uterine cells (% E2)” value (“Induction of AP activity … (% E2)” for short) in assay [4] was 4 % E2.
Consider `CCCN1CC(Cc2ccc(C3Oc4cc(O)ccc4C(C)=C3c3ccc(O)cc3)cc2F)C1` (single isomer, unassigned) [Compound 113, 2-(3-fluoro-4-((1-propylazetidin-3-yl)methyl)phenyl)-3-(4-hydroxyphenyl)-4-methyl-2H-chromen-7-ol], for which the pIC50 in assay [1] (MCF-7 cells) is 7.62; in assay [3] (MCF-7 cells), 7.89. For the same compound, the “AP activity (% E2)” value in assay [2] turned out to be 15 % E2. In addition, at ERα, the “Relative change ERα levels (% vehicle)” value is listed as 38 % veh. Also, in assay [4], the “Induction of AP activity … (% E2)” value came to 17 % E2.
In the case of `CCCN1CC(Oc2ccc(C3Oc4cc(O)ccc4C(C)=C3c3ccccc3)cc2)C1` (single isomer, unassigned) [Compound 118, 4-methyl-3-phenyl-2-(4-((1-propylazetidin-3-yl)oxy)phenyl)-2H-chromen-7-ol], the results for the pIC50 in assay [1] (MCF-7 cells) and in assay [3] (MCF-7 cells) were 6.88 and 6.60, respectively. Further, the “AP activity (% E2)” value in assay [2] came out at 16 % E2. Besides, on ERα, the “Relative change ERα levels (% vehicle)” value is recorded as 55 % veh. Further, the “Induction of AP activity … (% E2)” value in assay [4] was determined as 104 % E2.
On to `CCCN1CC(Cc2ccc(C3Oc4cc(O)ccc4C(C)=C3c3ccc(O)cc3)cc2F)C1` (single isomer, unassigned) [Compound 112, 2-(3-fluoro-4-((1-propylazetidin-3-yl)methyl)phenyl)-3-(4-hydroxyphenyl)-4-methyl-2H-chromen-7-ol], for which the negative logarithm of the IC50 (pIC50) in assay [1] (MCF-7 cells) is 8.15; in assay [3] (MCF-7 cells) it was 8.70. For the same compound, the “AP activity (% E2)” value in assay [2] is recorded as 4 % E2. Further, on ERα, the “Relative change ERα levels (% vehicle)” value is 35 % veh. Besides, the “Induction of AP activity … (% E2)” value in assay [4] is on record as 5* % E2.
Regarding `CCCN1CC(Cc2ccc(C3Oc4cc(O)ccc4C(C)=C3c3ccc(O)cc3)cc2)C1` (single isomer, unassigned) [Compound 102, 3-(4-hydroxyphenyl)-4-methyl-2-(4-((1-propylazetidin-3-yl)methyl)phenyl)-2H-chromen-7-ol], the pIC50 in assay [1] (MCF-7 cells) is 8.22; in assay [3] (MCF-7 cells) it was 8.70. The “AP activity (% E2)” value in assay [2] stood at 8 % E2. Moreover, the “Relative change ERα levels (% vehicle)” value on ERα worked out at 50 % veh. In assay [4], the “Induction of AP activity … (% E2)” value came to 9 % E2.
Take `CCCN1CC(Cc2ccc(C3Oc4cc(O)ccc4C(C)=C3c3ccc(O)cc3)cc2)C1` (centres unmarked) [Compound 101, 3-(4-hydroxyphenyl)-4-methyl-2-(4-((1-propylazetidin-3-yl)methyl)phenyl)-2H-chromen-7-ol]: the pIC50 in assay [1] (setting [5]) was 8.15; in assay [3] (setting [5]), 8.52. In addition, the “AP activity (% E2)” value in assay [2] was 8 % E2. On ERα, the “Relative change ERα levels (% vehicle)” value is 51 % veh. For the same compound, the “Induction of AP activity … (% E2)” value in assay [4] amounted to 9 % E2.
`CCCN1CC(Cc2ccc(C3Oc4cc(O)ccc4C(C)=C3c3ccc(O)cc3)cc2)C1` (single isomer, unassigned) [Compound 103, 3-(4-hydroxyphenyl)-4-methyl-2-(4-((1-propylazetidin-3-yl)methyl)phenyl)-2H-chromen-7-ol]: the negative logarithm of the IC50 (pIC50) is 7.23 in assay [1] (MCF-7 cells) and 7.57 in assay [3] (MCF-7 cells). Also, the “AP activity (% E2)” value in assay [2] was 36 % E2. In addition, the “Relative change ERα levels (% vehicle)” value on ERα is 55 % veh. The “Induction of AP activity … (% E2)” value in assay [4] is given as 23 % E2.
